Results from patent publication US8440590B2, “Method for controlling soybean rust” (priority 2006, dated 2013).

Tests used:
Assay type in all cases: in vivo
[1] = test system: soybean cv. S-40-R9 (RR-soybean); assay: Crop tolerance test (germination after seed treatment), cv. S-40-R9
Experimental: (§1) Fifty soybean seeds of cv. S-40-R9 (RR-soybean) or cv. Williams (not GM) are sown 2 cm deep into trays filled with quarz sand. Seeds are treated prior to sowing with the formulated ais. The plants are grown at 20-23° C. in a greenhouse. If necessary, artificial lighting is supplied to give a 14 hr day.
(§2) Plant emergence 6 DAS and final stand 11 DAS is counted.

[2] = test system: soybean cv. Williams (not GM); assay: Crop tolerance test (germination after seed treatment), cv. Williams
Experimental: as §1, §2

Phakopsora pachyrhizi [3] = assay: Test for rust activity, leaf discs from seed-treated plants, cv. S-40-R9; conditions: 11 DAI
Experimental: as §1
(§3) For the soybean rust assay, plants are transplanted 13 DAS into 8 cm pots filled with soil. 13 days after transplanting leaf discs are cut from the first and second true leaves and transferred to multiwell plates filled with water agar. 1 day later the leaf discs are inoculated with Phakopsora pachyrhizi. Assessment of the disease incidence is done 11 DAI (days after inoculation).

Phakopsora pachyrhizi [4] = assay: Test for rust activity, leaf discs from seed-treated plants, cv. Williams; conditions: 11 DAI
Experimental: as §1, §3

[5] = GA seed treatment 1 g ai/100 kg, cv. S-40-R9, fifty seeds sown
[6] = GA seed treatment 2 g ai/100 kg, cv. S-40-R9, fifty seeds sown
[7] = GA seed treatment 1 g ai/100 kg
[8] = GA seed treatment 2 g ai/100 kg
[9] = GA seed treatment 1 g ai/100 kg, cv. Williams, fifty seeds sown
[10] = GA seed treatment 2 g ai/100 kg, cv. Williams, fifty seeds sown

For `CC(C1CC1)C(O)(Cn1cncn1)c1ccc(Cl)cc1` (stereo not shown) [Cyproconazole (CCZ), cyproconazole], the “Effect on plant numbers and size (phytotoxicity)” value ([1]; in vivo) was “severe reductions in plant numbers and size”, the “Germination % Emergence 6 DAS” value ([1]; in vivo) was 0% and the “Germination Count 6 DAS” value ([1]; in vivo) was 0. The “Germination % Emergence 6 DAS” value ([2]; in vivo) was 0% and the “Germination Count 6 DAS” value ([2]; in vivo) was 0.
In the case of `C=C1C[C@]23C[C@@]1(O)CC[C@H]2[C@@]12C=C[C@H](O)[C@@](C)(C(=O)O1)[C@H]2[C@@H]3C(=O)O` [Gibberelic acid (GA), gibberellic acid (gibberellin A3)], the “Germination % Emergence 6 DAS” value [1, 5] is reported as 100%, the “Germination % Final Stand 11 DAS” value [1, 5] is reported as 100% and the “Germination Count 6 DAS” value [1, 5] is reported as 50. For the same compound, the “Germination Count 11 DAS” value [1, 5] was 50, the “Germination % Emergence 6 DAS” value [1, 6] was 96% and the “Germination % Final Stand 11 DAS” value [1, 6] was 96%. For the same compound, the “Germination Count 6 DAS” value [1, 6] was 48, the “Germination Count 11 DAS” value [1, 6] was 48 and the “1st Leaf % Activity” value (Phakopsora pachyrhizi [3]; [7]) was 0.0%. The “1st Leaf % Disease” value (Phakopsora pachyrhizi [3]; [7]) was 87.8%, the “2nd Leaf % Activity” value (Phakopsora pachyrhizi [3]; [7]) was 0.0% and the “2nd Leaf % Disease” value (Phakopsora pachyrhizi [3]; [7]) was 71.1%. The “1st Leaf % Activity” value (Phakopsora pachyrhizi [3]; [8]) was 0.0%, the “1st Leaf % Disease” value (Phakopsora pachyrhizi [3]; [8]) was 82.8% and the “2nd Leaf % Activity” value (Phakopsora pachyrhizi [3]; [8]) was 0.0%. For the same compound, the “2nd Leaf % Disease” value (Phakopsora pachyrhizi [3]; [8]) was 68.9%, the “1st Leaf % Activity” value (Phakopsora pachyrhizi [4]; [7]) was 0.0% and the “1st Leaf % Disease” value (Phakopsora pachyrhizi [4]; [7]) was 88.9%. The “2nd Leaf % Activity” value (Phakopsora pachyrhizi [4]; [7]) was 32.4%, the “2nd Leaf % Disease” value (Phakopsora pachyrhizi [4]; [7]) was 48.3% and the “1st Leaf % Activity” value (Phakopsora pachyrhizi [4]; [8]) was 0.0%. For the same compound, the “1st Leaf % Disease” value (Phakopsora pachyrhizi [4]; [8]) was 87.2%, the “2nd Leaf % Activity” value (Phakopsora pachyrhizi [4]; [8]) was 28.4% and the “2nd Leaf % Disease” value (Phakopsora pachyrhizi [4]; [8]) was 51.1%. For the same compound, the “Germination % Emergence 6 DAS” value [2, 9] was 100%, the “Germination % Final Stand 11 DAS” value [2, 9] was 100% and the “Germination Count 6 DAS” value [2, 9] was 50. The “Germination Count 11 DAS” value [2, 9] was 50, the “Germination % Emergence 6 DAS” value [2, 10] was 98% and the “Germination % Final Stand 11 DAS” value [2, 10] was 98%. For the same compound, the “Germination Count 6 DAS” value [2, 10] was 49 and the “Germination Count 11 DAS” value [2, 10] was 49.
